Assay results published in the supplement of paper PMC12463676, “Small-molecule dissolution of stress granules by redox modulation benefits ALS models” (Nature Chemical Biology, 2025).

Tests used:
lipoamide = compound: NC(=O)CCCCC1CCSS1 [lipoamide]; experiment: thermal stability z-score vs DMSO; higher = more thermally stabilized by treatment; settings: HeLa, lipoamide concentration 100 µM
Experimental: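 Cellular thermal proteome profiling in HeLa cells. Cells were treated with 100 µM lipoamide for 1 h, with or without 1 mM arsenate for a further 1 h, then heated to ten temperatures (37-66.3 °C), and soluble protein was quantified by TMT mass spectrometry relative to 0.1% DMSO controls. The thermal stability score (sum of log2 fold changes minus the abundance score) was transformed to a z-score; mean of n = 3 experiments.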

potassium arsenate = compound: O=[As]([O-])(O)O.[K+] [potassium arsenate]; experiment: as above; settings: HeLa; arsenate concentration 1 mM
Experimental: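 Cellular thermal proteome profiling in HeLa cells treated with 1 mM arsenate for 1 h (DMSO pretreatment), heated to ten temperatures (37-66.3 °C). Soluble protein was quantified by TMT mass spectrometry relative to DMSO controls; the thermal stability score was transformed to a z-score; mean of n = 3 experiments.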

[1] = arsenate co-treatment: 1 mM arsenate 1 h
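Further: each temperature applied for 3 min, abundance score taken as mean log2 fold change at the two lowest temperatures, z-score obtained by mean subtraction and division by SD.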

UniProt Q9UGR2, sequence (Q9UGR2 whole entry): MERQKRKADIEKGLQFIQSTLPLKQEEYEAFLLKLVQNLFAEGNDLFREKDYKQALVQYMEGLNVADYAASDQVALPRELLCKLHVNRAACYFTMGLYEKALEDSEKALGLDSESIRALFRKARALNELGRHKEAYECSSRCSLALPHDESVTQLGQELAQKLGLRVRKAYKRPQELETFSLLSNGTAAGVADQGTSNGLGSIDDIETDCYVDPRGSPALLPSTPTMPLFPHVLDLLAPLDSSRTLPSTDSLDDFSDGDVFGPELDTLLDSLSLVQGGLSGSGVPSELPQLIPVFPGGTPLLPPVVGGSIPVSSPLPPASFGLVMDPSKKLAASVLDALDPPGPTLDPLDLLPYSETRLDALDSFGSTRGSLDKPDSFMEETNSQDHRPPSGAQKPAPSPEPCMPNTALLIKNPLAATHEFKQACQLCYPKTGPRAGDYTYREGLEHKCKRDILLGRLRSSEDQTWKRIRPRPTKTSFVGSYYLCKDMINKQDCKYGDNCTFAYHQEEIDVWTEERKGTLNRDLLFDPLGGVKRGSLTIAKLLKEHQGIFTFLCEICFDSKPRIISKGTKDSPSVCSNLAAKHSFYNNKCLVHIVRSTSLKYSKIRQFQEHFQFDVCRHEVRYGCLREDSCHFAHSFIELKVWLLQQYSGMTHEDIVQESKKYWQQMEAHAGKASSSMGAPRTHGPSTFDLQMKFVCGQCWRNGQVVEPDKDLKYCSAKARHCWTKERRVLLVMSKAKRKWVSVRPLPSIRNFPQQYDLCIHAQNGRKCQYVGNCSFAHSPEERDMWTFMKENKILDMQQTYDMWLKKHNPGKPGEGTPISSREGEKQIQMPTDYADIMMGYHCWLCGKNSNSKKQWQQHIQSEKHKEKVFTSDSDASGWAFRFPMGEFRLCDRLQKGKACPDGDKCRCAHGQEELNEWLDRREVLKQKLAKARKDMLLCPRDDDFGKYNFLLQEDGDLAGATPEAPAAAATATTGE
UniProt Q6PJT7, sequence (Q6PJT7 whole entry): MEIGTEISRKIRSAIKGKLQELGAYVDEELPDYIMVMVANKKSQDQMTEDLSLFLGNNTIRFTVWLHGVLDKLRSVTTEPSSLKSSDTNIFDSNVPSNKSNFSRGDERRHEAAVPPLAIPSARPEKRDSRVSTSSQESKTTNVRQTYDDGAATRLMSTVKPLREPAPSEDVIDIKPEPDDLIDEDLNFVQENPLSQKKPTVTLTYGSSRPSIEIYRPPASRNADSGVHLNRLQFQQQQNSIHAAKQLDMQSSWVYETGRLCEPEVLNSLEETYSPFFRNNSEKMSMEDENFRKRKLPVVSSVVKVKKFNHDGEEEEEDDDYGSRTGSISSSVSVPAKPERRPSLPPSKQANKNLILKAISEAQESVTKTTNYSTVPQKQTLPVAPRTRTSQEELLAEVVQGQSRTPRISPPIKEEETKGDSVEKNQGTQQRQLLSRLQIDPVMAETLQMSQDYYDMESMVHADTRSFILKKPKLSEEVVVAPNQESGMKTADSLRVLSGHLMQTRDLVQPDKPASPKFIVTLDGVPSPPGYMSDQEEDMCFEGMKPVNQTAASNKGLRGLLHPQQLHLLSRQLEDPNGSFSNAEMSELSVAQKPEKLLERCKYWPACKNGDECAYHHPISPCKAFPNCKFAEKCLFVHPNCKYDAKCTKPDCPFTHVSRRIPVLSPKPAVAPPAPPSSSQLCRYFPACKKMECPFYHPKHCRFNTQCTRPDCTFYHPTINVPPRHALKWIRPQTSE
UniProt Q8IWT0, sequence (Q8IWT0 whole entry): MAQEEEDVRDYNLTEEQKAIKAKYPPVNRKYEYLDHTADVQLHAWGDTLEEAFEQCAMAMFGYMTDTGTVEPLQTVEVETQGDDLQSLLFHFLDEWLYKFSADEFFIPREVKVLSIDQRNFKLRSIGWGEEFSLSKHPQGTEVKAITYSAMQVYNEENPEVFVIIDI
UniProt P16989, sequence (P16989 whole entry): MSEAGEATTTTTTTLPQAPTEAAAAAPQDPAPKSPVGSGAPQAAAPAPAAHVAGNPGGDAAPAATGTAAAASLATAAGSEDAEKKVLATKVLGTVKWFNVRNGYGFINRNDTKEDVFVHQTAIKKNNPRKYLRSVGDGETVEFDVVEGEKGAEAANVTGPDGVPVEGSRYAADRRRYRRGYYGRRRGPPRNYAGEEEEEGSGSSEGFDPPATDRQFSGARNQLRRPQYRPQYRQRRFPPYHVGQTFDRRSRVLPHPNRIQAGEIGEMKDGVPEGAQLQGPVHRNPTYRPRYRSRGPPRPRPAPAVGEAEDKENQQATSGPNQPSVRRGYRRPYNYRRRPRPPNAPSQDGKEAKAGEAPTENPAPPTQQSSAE
UniProt Q9H6S0, sequence (Q9H6S0 whole entry): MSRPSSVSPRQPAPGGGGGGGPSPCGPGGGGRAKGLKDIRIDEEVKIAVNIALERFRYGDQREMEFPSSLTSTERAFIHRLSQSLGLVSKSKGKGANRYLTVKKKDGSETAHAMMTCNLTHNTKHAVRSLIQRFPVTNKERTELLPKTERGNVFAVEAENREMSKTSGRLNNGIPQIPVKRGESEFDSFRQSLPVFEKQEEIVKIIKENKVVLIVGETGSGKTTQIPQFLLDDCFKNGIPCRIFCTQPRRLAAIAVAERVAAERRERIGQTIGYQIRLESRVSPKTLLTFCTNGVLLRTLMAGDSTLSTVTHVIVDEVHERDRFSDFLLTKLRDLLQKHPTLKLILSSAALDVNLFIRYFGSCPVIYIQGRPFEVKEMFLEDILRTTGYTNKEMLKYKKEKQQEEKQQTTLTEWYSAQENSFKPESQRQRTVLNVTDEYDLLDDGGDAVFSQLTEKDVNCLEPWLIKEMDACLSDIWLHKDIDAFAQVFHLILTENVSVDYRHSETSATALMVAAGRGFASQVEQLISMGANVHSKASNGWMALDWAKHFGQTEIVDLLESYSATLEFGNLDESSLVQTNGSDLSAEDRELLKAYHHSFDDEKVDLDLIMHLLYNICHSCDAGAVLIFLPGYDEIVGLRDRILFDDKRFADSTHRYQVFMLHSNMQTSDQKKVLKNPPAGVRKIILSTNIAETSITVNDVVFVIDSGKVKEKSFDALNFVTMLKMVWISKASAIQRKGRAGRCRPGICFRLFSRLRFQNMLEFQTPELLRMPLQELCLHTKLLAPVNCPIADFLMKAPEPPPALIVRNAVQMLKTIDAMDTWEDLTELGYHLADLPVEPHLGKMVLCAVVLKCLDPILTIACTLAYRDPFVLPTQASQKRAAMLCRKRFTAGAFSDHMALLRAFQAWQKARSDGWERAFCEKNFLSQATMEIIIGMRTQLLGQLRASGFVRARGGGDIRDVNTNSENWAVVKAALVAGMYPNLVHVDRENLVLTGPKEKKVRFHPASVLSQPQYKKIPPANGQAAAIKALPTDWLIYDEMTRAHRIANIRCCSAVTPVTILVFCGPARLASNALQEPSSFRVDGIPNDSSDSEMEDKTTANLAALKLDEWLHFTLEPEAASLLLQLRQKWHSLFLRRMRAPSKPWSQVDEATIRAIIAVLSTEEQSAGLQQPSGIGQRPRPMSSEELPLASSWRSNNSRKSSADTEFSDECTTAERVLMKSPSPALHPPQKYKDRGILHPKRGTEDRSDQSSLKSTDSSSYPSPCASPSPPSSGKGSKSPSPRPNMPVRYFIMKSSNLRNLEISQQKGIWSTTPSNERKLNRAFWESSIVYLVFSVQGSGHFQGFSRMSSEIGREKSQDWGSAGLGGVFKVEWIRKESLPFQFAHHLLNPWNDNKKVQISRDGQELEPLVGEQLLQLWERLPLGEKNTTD
UniProt Q8IWR0, sequence (Q8IWR0 whole entry): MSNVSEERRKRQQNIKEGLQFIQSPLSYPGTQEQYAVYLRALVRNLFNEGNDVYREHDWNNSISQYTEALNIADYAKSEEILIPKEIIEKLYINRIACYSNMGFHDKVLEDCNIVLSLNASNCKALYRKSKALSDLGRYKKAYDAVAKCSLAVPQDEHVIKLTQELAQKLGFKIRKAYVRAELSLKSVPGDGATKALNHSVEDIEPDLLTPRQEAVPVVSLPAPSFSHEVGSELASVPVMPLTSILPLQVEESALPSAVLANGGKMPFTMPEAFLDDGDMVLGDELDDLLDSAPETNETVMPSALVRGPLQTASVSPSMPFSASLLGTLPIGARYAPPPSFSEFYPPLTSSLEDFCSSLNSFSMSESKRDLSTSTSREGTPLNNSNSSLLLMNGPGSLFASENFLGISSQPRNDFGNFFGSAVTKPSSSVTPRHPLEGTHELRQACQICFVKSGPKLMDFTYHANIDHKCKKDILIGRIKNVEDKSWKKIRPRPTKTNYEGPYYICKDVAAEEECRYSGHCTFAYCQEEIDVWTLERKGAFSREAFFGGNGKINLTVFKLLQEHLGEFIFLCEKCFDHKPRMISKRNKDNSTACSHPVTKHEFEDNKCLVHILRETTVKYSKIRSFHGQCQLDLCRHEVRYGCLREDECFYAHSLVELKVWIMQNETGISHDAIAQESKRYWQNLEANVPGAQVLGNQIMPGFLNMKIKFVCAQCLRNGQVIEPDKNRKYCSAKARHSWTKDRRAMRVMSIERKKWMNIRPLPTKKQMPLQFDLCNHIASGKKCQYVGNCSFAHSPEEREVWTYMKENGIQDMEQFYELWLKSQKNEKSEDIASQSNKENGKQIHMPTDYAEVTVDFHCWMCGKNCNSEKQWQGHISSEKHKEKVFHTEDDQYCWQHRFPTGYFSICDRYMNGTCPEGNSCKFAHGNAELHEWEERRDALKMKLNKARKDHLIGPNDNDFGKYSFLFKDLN
UniProt P58557, sequence (P58557 whole entry): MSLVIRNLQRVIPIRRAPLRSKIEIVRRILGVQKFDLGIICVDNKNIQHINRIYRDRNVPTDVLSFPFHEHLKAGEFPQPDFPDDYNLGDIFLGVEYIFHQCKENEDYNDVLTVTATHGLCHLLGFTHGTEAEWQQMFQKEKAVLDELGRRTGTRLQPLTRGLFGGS
UniProt P62699, sequence (P62699 whole entry): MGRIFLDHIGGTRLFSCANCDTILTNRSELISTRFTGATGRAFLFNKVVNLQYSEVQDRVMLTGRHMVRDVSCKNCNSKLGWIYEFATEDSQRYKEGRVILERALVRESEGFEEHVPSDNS

| Target | thermal stability z-score (lipoamide; [1]) | thermal stability z-score (lipoamide; arsenate co-treatment: none) | thermal stability z-score (potassium arsenate) |
| --- | --- | --- | --- |
| WTAP (UniProt Q15007) | 0.0767 | 0.0181 | -0.059 |
| WWC1 (UniProt Q8IX03) | -0.0147 | -0.0692 | -0.0726 |
| WWC2 (UniProt Q6AWC2) | -0.0127 | -0.0518 | -0.129 |
| WWP2 (UniProt O00308) | -0.0648 | -0.0387 | 0.0179 |
| WWTR1 (UniProt Q9GZV5) | -0.0845 | -0.0566 | 0.377 |
| XAB2 (UniProt Q9HCS7) | -0.104 | -0.113 | 0.256 |
| XIAP (UniProt P98170) | -0.12 | -0.0464 | -0.747 |
| XPA (UniProt P23025) | 0.0325 | 0.0998 | -0.0786 |
| XPNPEP1 (UniProt Q9NQW7) | 1.5 | 0.794 | -0.738 |
| XPNPEP3 (UniProt Q9NQH7) | -0.37 | 0.018 | -0.646 |
| XPO1 (UniProt O14980) | 0.211 | 0.4 | 1.4 |
| XPO4 (UniProt Q9C0E2) | -0.237 | -0.0735 | -0.27 |
| XPO5 (UniProt Q9HAV4) | -0.576 | -0.108 | -0.103 |
| XPO6 (UniProt Q96QU8) | 0.0641 | 0.00854 | -0.339 |
| XPO7 (UniProt Q9UIA9) | -0.0212 | -0.0682 | 0.621 |
| XPOT (UniProt O43592) | -0.645 | -0.112 | -0.212 |
| XPR1 (UniProt Q9UBH6) | -0.458 | -0.47 | 0.209 |
| XRCC1 (UniProt P18887) | -0.0745 | 0.0492 | -0.417 |
| XRCC4 (UniProt Q13426) | 2.01 | 1.89 | 1.24 |
| XRCC5 (UniProt P13010) | -0.555 | 0.584 | -0.403 |
| XRCC6 (UniProt P12956) | -0.75 | 0.0871 | -0.634 |
| XRN1 (UniProt Q8IZH2) | -0.0709 | -0.0695 | -0.357 |
| XRN2 (UniProt Q9H0D6) | 0.575 | 0.495 | -0.818 |
| XXYLT1 (UniProt Q8NBI6) | -0.751 | -2.13 | 0.948 |

| Target | thermal stability z-score (lipoamide; [1]) | thermal stability z-score (lipoamide; arsenate co-treatment: none) | thermal stability z-score (potassium arsenate) |
| --- | --- | --- | --- |
| XYLB (UniProt O75191) | -0.0179 | -0.17 | 0.149 |
| YAP1 (UniProt P46937) | 0.509 | 0.727 | 0.0991 |
| YARS2 (UniProt Q9Y2Z4) | -0.741 | -0.156 | 0.423 |
| YARS (UniProt P54577) | 0.161 | 0.213 | 2.64 |
| YBEY (UniProt P58557) | -0.077 | 0.169 | 0.131 |
| YBX1 (UniProt P67809) | -0.0518 | -0.23 | -0.894 |
| YBX3 (UniProt P16989) | 0.153 | -0.0445 | -0.672 |
| YDJC (UniProt A8MPS7) | -0.851 | -1.66 | -1.04 |
| YEATS4 (UniProt O95619) | 0.802 | 0.865 | -0.33 |
| YES1 (UniProt P07947) | -0.641 | -0.393 | -2.98 |
| YIF1B (UniProt Q5BJH7) | 0.452 | -0.197 | 0.898 |
| YIPF3 (UniProt Q9GZM5) | -0.157 | 0.0301 | -0.0851 |
| YIPF4 (UniProt Q9BSR8) | 0.0431 | -0.44 | -0.689 |
| YIPF5 (UniProt Q969M3) | -0.255 | -0.344 | -0.18 |
| YKT6 (UniProt O15498) | -0.198 | 0.453 | -0.597 |
| YME1L1 (UniProt Q96TA2) | -0.813 | -0.425 | -0.298 |
| YOD1 (UniProt Q5VVQ6) | -0.00898 | -0.121 | 0.0186 |
| YPEL5 (UniProt P62699) | -0.116 | -0.259 | -0.117 |
| YRDC (UniProt Q86U90) | 0.45 | 0.0491 | 0.341 |
| YTHDC2 (UniProt Q9H6S0) | -0.0971 | -0.734 | -0.0852 |
| YTHDF1 (UniProt Q9BYJ9) | 0.00152 | -0.0393 | -0.193 |
| YTHDF2 (UniProt Q9Y5A9) | -0.0393 | -0.108 | 0.0979 |
| YTHDF3 (UniProt Q7Z739) | -0.486 | 0.111 | 0.174 |
| YWHAB (UniProt P31946) | 0.364 | 0.584 | 0.281 |

| Target | thermal stability z-score (lipoamide; [1]) | thermal stability z-score (lipoamide; arsenate co-treatment: none) | thermal stability z-score (potassium arsenate) |
| --- | --- | --- | --- |
| YWHAE (UniProt P62258) | 0.149 | 0.0341 | -0.368 |
| YWHAG (UniProt P61981) | 0.0458 | -0.0254 | -0.403 |
| YWHAH (UniProt Q04917) | 0.0489 | 0.303 | 0.138 |
| YWHAQ (UniProt P27348) | 0.857 | 0.727 | 0.199 |
| YWHAZ (UniProt P63104) | 0.146 | -0.0541 | -0.195 |
| YY1 (UniProt P25490) | 0.0187 | -0.101 | 0.338 |
| ZADH2 (UniProt Q8N4Q0) | 0.265 | 0.233 | 0.319 |
| ZAK (UniProt Q9NYL2) | -0.237 | -0.237 | -0.105 |
| ZBED1 (UniProt O96006) | -0.243 | -0.292 | 0.00958 |
| ZBTB7A (UniProt O95365) | 0.428 | -0.495 | -1.13 |
| ZBTB8OS (UniProt Q8IWT0) | -0.245 | 0.591 | -1.01 |
| ZBTB10 (UniProt Q96DT7) | 0.00974 | -0.093 | -0.307 |
| ZBTB33 (UniProt Q86T24) | -0.0938 | -0.0683 | -0.107 |
| ZC2HC1A (UniProt Q96GY0) | 0.178 | -0.306 | -1.15 |
| ZC3H4 (UniProt Q9UPT8) | 0.112 | -0.278 | -1.7 |
| ZC3H7A (UniProt Q8IWR0) | -0.124 | -0.0131 | -0.613 |
| ZC3H7B (UniProt Q9UGR2) | -0.082 | -0.0985 | -0.647 |
| ZC3H8 (UniProt Q8N5P1) | -0.0194 | -0.277 | -0.576 |
| ZC3H11A (UniProt O75152) | 0.0837 | -0.0442 | -0.845 |
| ZC3H12A (UniProt Q5D1E8) | 0.0783 | -0.187 | -0.189 |
| ZC3H14 (UniProt Q6PJT7) | 0.686 | -0.0584 | -5.55 |
| ZC3H15 (UniProt Q8WU90) | -0.032 | -0.0996 | 0.0266 |
| ZC3H18 (UniProt Q86VM9) | 1.11 | 0.987 | -1.11 |
